For 88 compounds, melting point results are on record in a melting point compilation (Tetko et al.; mined from patent text by program, amines drawn as free bases though some values may be those of a salt).

Some results are limits rather than exact numbers.

In turn, `CC(C(=O)N1CCCC1C(=O)O)N(CC(=O)C(Cc1ccccc1)NC(=O)c1ccccc1)C(=O)OCc1ccccc1` (stereo not drawn) had a melting point of 70 to 91 °C.
For `Cc1oc(-c2ccccc2)nc1CCOc1ccc(Cn2cc(CCC(=O)O)c(-c3ccccc3)n2)cc1` the value was 142 to 143 °C; for `CN1C(=O)C(c2ccc(OC(F)F)cc2)(c2cccc(C3CC(=O)C3)c2)N=C1N` (stereo not drawn), 68 to 70 °C.
As to `CC(=O)N1CCN(c2ccc(Nc3nccc(-c4sc(N(C)c5cccnc5)nc4C)n3)cc2)CC1`, the melting point was in the range of 205 to 206 °C.
In turn, `COC(=O)Cc1cc(C)ccc1OCc1ccc(OCc2nc(-c3ccccc3)oc2C)cc1` returned a melting point of 80 to 81 °C.
Take `C#CCNC1CCc2ccc([N+](=O)[O-])cc21` (stereo not drawn): the melting point is 37 to 39 °C.
For `Cc1oc2c(C=O)cccc2c1C` the value was 56 to 58 °C; for `CC(=O)N1CC(C)(C)c2cc(OC(C)C)ccc21`, 86 to 87 °C.
On to `CC(=O)C(=Cc1ccccc1)c1ccncc1`, for which the melting point was 101 to 103 °C.
For `NC(=O)c1[nH]c2ccccc2c1-c1ccc(NC(=O)Nc2cccc(C(F)(F)F)c2)cc1` the value was 156 to 158 °C.
For the compound `Cc1cc(-c2cscn2)ccc1-c1cc(C(F)(F)F)nn1-c1ccc(S(C)(=O)=O)cc1`, the melting point was found to be 175 °C.
The compound `Cc1sc(C#N)c2c1C(=O)CC(C)(C)C2` displayed a melting point of 73 to 75 °C.
The compound `COc1ccc(-c2sc3c(c2CBr)c(=O)c(-c2cnco2)cn3Cc2ccccc2F)cc1` came in with a melting point of 234 to 236 °C.
In the case of `O=C(O)c1c(O)c(-c2ccccc2)nc2ccccc12`, the melting point is 206 °C.
For `C=Cc1ccc(C(=O)Oc2ccc(NS(C)(=O)=O)cc2)cc1` the value was 172 to 173 °C; for `Cc1cc(-n2cnnc2)ccc1N`, 152 to 154 °C.
`COC(=O)c1c(C)cc2cc(OC)c(OC)cc2c1-c1ccnc(Br)c1` had a melting point of 148 to 150 °C.
Take `O=Cc1ccc(-c2ccc(O)cc2)c2ccoc12`: the melting point is 184 to 185 °C.
As for `CCC(CCC1(C(N)=O)c2ccccc2-c2ccccc21)NC(C)C` (stereo not drawn), the figure is 161 to 163 °C.
For the compound `CC1Cc2c(C#N)cccc2C1=O` (stereo not drawn), the melting point lay in the range of 101 to 102 °C.
For `COC(=O)CCC(=O)c1cc2c(s1)CCc1ccccc1C2=O`, the melting point is 97 to 98 °C.
`COc1cc(NC(=O)c2ccccc2Cl)ccc1C(=O)N1CCCC(OCCS(=O)(=O)c2ncc[nH]2)c2cc(Cl)ccc21` (stereo not drawn) showed a melting point of 247 to 248 °C.
As to `CC(=O)Oc1ccc(C(=O)O)cc1Cl`, the melting point lay within 152 to 159 °C.
The compound `CNC(=O)c1cccc(Oc2ncccc2C(=O)NCc2ccccc2)c1` registered a melting point of 164 to 167 °C.
With `CCOC(=O)/C=C/c1nc(-c2ccccc2)oc1COc1ccc(OCc2nc(-c3ccccc3)oc2C)cc1`, the melting point was in the range of 107 to 108 °C.
`COc1cc(N)cc(OC)c1-c1ccc(C[C@H](NC(=O)c2c(Cl)cccc2Cl)C(=O)O)cc1` displayed a melting point of 221 to 222 °C.
In turn, `CCO[C@@H](C)c1nnc([C@H](C)OCC)n1N[C@H](CC)C(OC)OC` returned a melting point of 88 °C.
As for `O=C1OC2(CC(c3cccc(Oc4ccccc4)c3)=NO2)c2ccccc21` (stereo not drawn), the melting point lay within 114 to 116 °C.
Consider `CC(COc1ccc(N2N=C3c4ccccc4SCC3CC2=O)cc1)N(C)C` (stereo not drawn), for which the melting point fell in the range of 171 to 173 °C.
With `CC(=O)C1=C(O)C(=C(C)Nc2ccc(NC(N)=O)cc2)C(=O)OC1=O`, the melting point lay within 250 to 253 °C.
The compound `COC(=O)[C@H]1NC(=O)[C@H]1NC(=O)Cc1ccccc1` (relative stereo) registered a melting point of 176 to 180 °C.
With `Nc1ncc(-c2ccc([N+](=O)[O-])c(Cl)c2Cl)c(N)n1`, the melting point was in the range of 237 to 239 °C.
The compound `COc1cc2c(c3c1OC(C)(C)C3)C(c1cccc(-c3ccc(C(=O)O)cc3)c1)=NC(C)(C)C2` returned a melting point of 161 to 165 °C.
Take `CC(C)(c1ccc2ncccc2c1)n1nnc2ccc(-c3cnn(CCO)c3)nc21`: the melting point was 95 to 98 °C.
`CC(C)(C)OC1CCC(C(=O)O)CC1` (stereo not drawn) registered a melting point of 100 to 105 °C.
As for `OC1CSC(Oc2cc(-c3cncnc3)cnc2F)C(O)C1O` (stereo not drawn), the figure is 204 to 205 °C.
Regarding `CC(=O)Oc1ccc2c(c1)CCC1C2CCC2(C)C(OS(C)(=O)=O)CCC12` (stereo not drawn), the melting point is 120 to 122 °C.
For `C=CCC12CC(=O)N(C)C1(O)CCc1ccc(OCc3ccccc3)cc12` (stereo not drawn) the value was 188 to 190 °C.
In the case of `COc1cc(OC)nc(C2(O)OC(=O)c3c2ccnc3C)n1` (stereo not drawn), the melting point lay within 203 to 204 °C.
In turn, `COc1cccc(-c2nc3c([nH]2)C(C)(C)CS(=O)(=O)CC3(C)C)c1` gave a melting point of 217 to 219 °C.
For `Cc1ccccc1COC(=O)NC(CO)Cc1ccc(O)cc1` (stereo not drawn), the melting point was in the range of 78 to 81 °C.
`COC(=O)c1cc(Br)cc(-c2ccc3c(c2)C(C)(C)CCC3(C)C)c1` gave a melting point of 88 °C.
Compound `Nc1cc2c(Nc3ccc(Br)c(Br)c3)ncnc2cn1` had a melting point of 265 to 268 °C.
For `CC(C)(C)c1ccc(C(=O)Nc2cc(Cl)c(N)cc2O)cc1` the value was 164 to 165 °C; for `CC1(C)COC(c2cc(F)c(F)cc2F)=N1`, 53 to 54 °C; for `Nc1nc(Oc2cc(F)cc(F)c2)nc2nc(-c3ccco3)nn12`, more than 300 °C.
In turn, `CC(C)(C)OC(=O)NC(Cc1ccccc1)C(O)C(Cc1ccccc1)NC(=O)[C@H](CC(N)=O)NC(=O)OCc1ccccc1` (stereo partly drawn) gave a melting point of 216 to 217 °C.
`CCC(=O)Nc1cc(C2=NCCO2)ccc1OCCCCCc1cc(C)no1`: the melting point lay within 133 to 134 °C.
As for `O=[N+]([O-])c1cccc(Cc2nnn[nH]2)c1`, the figure is 140 °C; as for `CCOC(=O)CNC(=O)CCCCCNC(=O)c1ccc(OC)cc1`, 106 to 107 °C; as for `O=Cc1ccc(NC(=O)c2cc(F)cc(N3CCOCC3)c2)c2ccccc12`, 204 to 205 °C.
Compound `COc1cc2c(cc1C(F)(F)F)N(C(=O)Nc1ccc(OCc3ccncc3)nc1)CC2` yielded a melting point of 187 to 189 °C.
For the compound `CCSc1scnc1C(=O)O`, the melting point is 158 to 159 °C.
As for `CCSc1ncc(S(N)(=O)=O)s1`, the figure is 95 to 96 °C.
For the compound `COc1ncccc1NC(=NC#N)NC(NC(=O)c1cc(F)cc(F)c1)C(C)(Cl)Cl` (stereo not drawn), the melting point lay in the range of 125 to 126 °C.
For `Cn1nc(Cl)c2c(=O)n3c(nc21)SCC3` the value was 222 °C; for `Cc1cccc(CSc2nc3cnccc3[nH]2)c1`, 166 to 168 °C; for `COc1cc2ncnc(N3CCN(C(=S)Nc4ccccn4)CC3)c2cc1OC`, 208 to 210 °C.
On to `COc1ccc(NC(=O)Nc2c(C)cc(Oc3ccc4nc(COc5ccc(CC6SC(=O)NC6=O)cc5)n(C)c4c3)cc2C)cc1` (stereo not drawn), for which the melting point fell in the range of 229 to 231 °C.
In turn, `CCn1ncc2c(Cl)c(C=O)cnc21` showed a melting point of 89 to 90 °C.
`O=C1NC(=O)C(Cc2ccc(OCCc3cccc4ccccc34)cc2)S1` (stereo not drawn) showed a melting point of 121 to 122 °C.
For the compound `COc1cc2nccc(CC(=O)O)c2cc1OC`, the melting point was more than 250 °C.
On to `O=C1NC(=S)NC(=O)C1=Cc1ccc([N+](=O)[O-])s1`, for which the melting point turned out to be 285 °C.
`COc1cc(C2=C(c3cn(CCCNC(=O)C(N)CC(C)C)c4ccccc34)C(=O)NC2=O)cc(OC)c1OC` (stereo not drawn) yielded a melting point of 172 to 173 °C.
Turning to `Cc1ccc(-c2nc(CCl)c(C)o2)cc1`, the melting point lay within 91 to 93 °C.
`CCOC(=O)CNC(=O)[C@@H]1CS[C@H](c2ccccc2O)N1C(=O)CCSC(C)=O` returned a melting point of 130 to 131 °C.
`Cc1ccc(F)cc1-n1c(CF)nc2ccc(N)cc2c1=O` showed a melting point of 174 to 176 °C.
`Cc1cccc(C(=O)NC(NC(=NC#N)Nc2cccnc2)C(C)(Cl)Cl)c1` (stereo not drawn) displayed a melting point of 171 to 172 °C.
Compound `COC(=O)c1ccccc1NC(=O)c1c(-c2ccccc2)c(-c2ccc(F)cc2)c(C=O)n1C(C)C` gave a melting point of 222 to 223 °C.
With `O=C1CCC(c2ccc3c(c2)NCCO3)=NN1`, the melting point lay within 198 to 199 °C.
For `O=C(NC/C=C\COc1cc(CN2CCCCC2)ccn1)NC1CCCC1` the value was 121 to 124 °C; for `O=C(O)Cn1c(=O)c(=O)[nH]c2cc(Br)ccc21`, more than 320 °C; for `C[C@H]1CN(c2c(F)c(F)c3c(=O)c(C(=O)O)cn(C4CC4)c3c2F)C[C@H]1N` (relative stereo), 255 to 256 °C.
In turn, `O=C(O)Cc1ccc2c(c1)CC(CCNS(=O)(=O)c1ccc(Cl)cc1)C2` (stereo not drawn) had a melting point of 146 to 147 °C.
On to `CCOc1cccc(-c2nc3n(n2)Cc2ccccc2-3)c1`, for which the melting point was 166 to 167 °C.
For `O=C1c2ccccc2C(=O)N1OS(=O)(=O)c1ccc(Cl)cc1` the value was 178 to 180 °C; for `O=C(Nc1cccc(C(F)(F)F)c1)c1cccc2cc(Oc3cc(COCc4ccccc4)ncn3)ccc12`, 123 to 124 °C.
As for `Nc1cc(Cl)cc2c(Cl)ccnc12`, the melting point fell in the range of 132 to 134 °C.
For `COC(=O)C1=C(C)N(CCOC(=O)c2ccccc2)C(=O)NC1c1ccc2ccccc2c1` (stereo not drawn) the value was 116 °C; for `CCCCCCCCCCCCCc1nnc(N)o1`, 147 to 150 °C; for `CCn1ncc2c(O)c3c(nc21)CCc1ccccc1C3=O`, 154 to 155 °C.
`CCn1cc(-c2ccc(O)cc2)nc1SC` gave a melting point of 218 °C.
The compound `CC(=O)N1CCC(c2nccc3occc23)CC1` registered a melting point of 108 to 110 °C.
Compound `CCCOc1ccc(CCCOc2nn(Cc3ccccc3)cc2CC(=O)O)c(Oc2ncc(C(F)(F)F)cc2Cl)c1` came in with a melting point of 96.5 to 97.5 °C.
The compound `CSC(C)=NOC(=O)NCSN(P1OCC(C)(C)CO1)C(C)(C)C` yielded a melting point of 167 to 168 °C.
`Cc1oc(-c2ccccc2)nc1CNCc1ccc(C[C@@H](C(=O)O)n2cccc2)cc1` displayed a melting point of 163 to 165 °C.
In turn, `CCc1cccc2c1nc(-c1c(F)cccc1F)n2Cc1c(F)cccc1F` displayed a melting point of 165 to 166 °C.
As for `COC(=O)Cc1ccccc1CC(=O)NCCc1ccc(OC)c(OC)c1`, the figure is 88 to 91 °C.
